Assay results from ChEMBL document CHEMBL3045684, “Compatibility of traditional and novel acaricides with bumblebees (Bombus terrestris): a first laboratory assessment of toxicity and sublethal effects” (Pest Manag Sci, 2010).
The source made the active and inactive calls. No cut-off for these calls is given here.

Legend:
Bombus terrestris [1] = test: Toxicity against worker Bombus terrestris (bumblebee) assessed as reduction in reproduction at 240 mg a.i./l, po administered through pollen for 11 weeks measured once a week for 11 weeks; assay type: functional, organism-based
Bombus terrestris [2] = test: Toxicity against worker Bombus terrestris (bumblebee) assessed as mortality at 240 mg a.i./l, po administered through sugar water for 11 weeks measured everyday for 3 days followed by once a week for 11 weeks; assay type: functional
Bombus terrestris [3] = test: Toxicity against worker Bombus terrestris (bumblebee) assessed as mortality at 240 mg a.i./l, po administered through sugar water measured up to 1 week; assay type: functional, organism-based
Bombus terrestris [4] = test: Toxicity against worker Bombus terrestris (bumblebee) assessed as mortality at 240 mg a.i./l, po administered through pollen measured after 5 weeks; assay type: functional; conditions: 840 h
Bombus terrestris [5] = test: Contact toxicity against worker Bombus terrestris (bumblebee) assessed as reduction in reproduction at 240 mg a.i./l applied on the dorsal thorax for 11 weeks measured once a week for 11 weeks relative to control; assay type: functional, organism-based
Apis mellifera [6] = test: Toxicity against Apis mellifera (honey bee) assessed per bee; assay type: functional
Bombus terrestris [7] = test: Toxicity against worker Bombus terrestris (bumblebee) assessed as mortality at 240 mg a.i./l, po administered through pollen measured after 8 weeks; assay type: functional; conditions: 1344 h
Bombus terrestris [8] = test: Toxicity against worker Bombus terrestris (bumblebee) assessed as mortality at 240 mg a.i./l, po administered through pollen for 11 weeks measured everyday for 3 days followed by once a week for 11 weeks; assay type: functional
Bombus terrestris [9] = test: Toxicity against worker Bombus terrestris (bumblebee) assessed as reduction in reproduction at 240 mg a.i./l, po administered through sugar water for 11 weeks measured once a week for 11 weeks relative to control; assay type: functional, organism-based
Apis mellifera [10] = test: Contact toxicity against Apis mellifera (honey bee) assessed per bee; assay type: functional
Bombus terrestris [11] = test: Contact toxicity against worker Bombus terrestris (bumblebee) assessed as mortality at 240 mg a.i./l applied on the dorsal thorax for 11 weeks measured everyday for 3 days followed by once a week for 11 weeks; assay type: functional
Bombus terrestris [12] = test: Contact toxicity against Bombus terrestris (bumblebee) assessed per bee; assay type: functional
Bombus terrestris [13] = test: Toxicity against worker Bombus terrestris (bumblebee) assessed as mortality at 55 mg a.i./l, po administered through pollen for 11 weeks measured everyday for 3 days followed by once a week for 11 weeks; assay type: functional, organism-based
Bombus terrestris [14] = test: Toxicity against worker Bombus terrestris (bumblebee) assessed as reduction in reproduction at 55 mg a.i./l, po administered through sugar water for 11 weeks measured once a week for 11 weeks relative to control; assay type: functional, organism-based
Bombus terrestris [15] = test: Toxicity against worker Bombus terrestris (bumblebee) assessed as mortality at 55 mg a.i./l, po administered through sugar water for 11 weeks measured everyday for 3 days followed by once a week for 11 weeks; assay type: functional
Bombus terrestris [16] = test: Contact toxicity against worker Bombus terrestris (bumblebee) assessed as mortality at 55 mg a.i./l applied on the dorsal thorax for 11 weeks measured everyday for 3 days followed by once a week for 11 weeks; assay type: functional
Bombus terrestris [17] = test: Toxicity against worker Bombus terrestris (bumblebee) assessed as mortality at 55 mg a.i./l, po administered through sugar water measured after 9 to 11 weeks; assay type: functional, organism-based
Bombus terrestris [18] = test: Contact toxicity against worker Bombus terrestris (bumblebee) assessed as reduction in reproduction at 55 mg a.i./l applied on the dorsal thorax for 11 weeks measured once a week for 11 weeks relative to control; assay type: functional, organism-based
Bombus terrestris [19] = test: Toxicity against worker Bombus terrestris (bumblebee) assessed as reduction in reproduction at 55 mg a.i./l, po administered through pollen for 11 weeks measured once a week for 11 weeks; assay type: functional; parameters: scale not given: the % may be the effect or the level left
Bombus terrestris [20] = test: Toxicity against po dosed worker Bombus terrestris (bumblebee) administered through sugar water for 11 weeks measured everyday for 3 days followed by once a week for 11 weeks; assay type: functional
Bombus terrestris [21] = test: Contact toxicity against worker Bombus terrestris (bumblebee) assessed as mortality at 50 mg a.i./l applied on the dorsal thorax for 11 weeks measured everyday for 3 days followed by once a week for 11 weeks; assay type: functional
Bombus terrestris [22] = test: Contact toxicity against worker Bombus terrestris (bumblebee) assessed as reduction in reproduction at 50 mg a.i./l applied on the dorsal thorax for 11 weeks measured once a week for 11 weeks relative to control; assay type: functional, organism-based
Bombus terrestris [23] = test: Toxicity against worker Bombus terrestris (bumblebee) assessed as mortality at 50 mg a.i./l, po administered through pollen for 11 weeks measured everyday for 3 days followed by once a week for 11 weeks; assay type: functional, organism-based
Bombus terrestris [24] = test: Toxicity against worker Bombus terrestris (bumblebee) assessed as mortality at 50 mg a.i./l, po administered through sugar water for 11 weeks measured everyday for 3 days followed by once a week for 11 weeks; assay type: functional
Bombus terrestris [25] = test: Toxicity against worker Bombus terrestris (bumblebee) assessed as mortality at 50 mg a.i./l, po administered through sugar water measured after 4 to 6 weeks; assay type: functional, organism-based
Bombus terrestris [26] = test: Toxicity against worker Bombus terrestris (bumblebee) assessed as reduction in reproduction at 50 mg a.i./l, po administered through pollen for 11 weeks measured once a week for 11 weeks; assay type: functional; parameters: scale not given: the % may be the effect or the level left
[27] = n-octanol-water distribution coefficient, log KOW of the compound; assay type: physicochemical; conditions: read-out: log KOW
Bombus terrestris [28] = test: Toxicity against worker Bombus terrestris (bumblebee) assessed as reduction in reproduction at 50 mg a.i./l, po administered through sugar water for 11 weeks measured once a week for 11 weeks relative to control; assay type: functional; parameters: scale not given: the % may be the effect or the level left
Apis mellifera [29] = test: Toxicity against Apis mellifera (honey bee) assessed as adverse efffect at 250 mg/l; assay type: functional, organism-based
Bombus terrestris [30] = test: Toxicity against worker Bombus terrestris (bumblebee) assessed as reduction in reproduction at 125 mg a.i./l, po administered through pollen for 11 weeks measured once a week for 11 weeks; assay type: functional, organism-based
Bombus terrestris [31] = test: Contact toxicity against worker Bombus terrestris (bumblebee) assessed as reduction in reproduction at 125 mg a.i./l applied on the dorsal thorax for 11 weeks measured once a week for 11 weeks relative to control; assay type: functional, organism-based
Bombus terrestris [32] = test: Toxicity against worker Bombus terrestris (bumblebee) assessed as mortality at 125 mg a.i./l, po administered through pollen for 11 weeks measured everyday for 3 days followed by once a week for 11 weeks; assay type: functional, organism-based
Bombus terrestris [33] = test: Toxicity against worker Bombus terrestris (bumblebee) assessed as reduction in reproduction at 125 mg a.i./l, po administered through sugar water for 11 weeks measured once a week for 11 weeks relative to control; assay type: functional, organism-based
Bombus terrestris [34] = test: Toxicity against worker Bombus terrestris (bumblebee) assessed as mortality at 125 mg a.i./l, po administered through sugar water for 11 weeks measured everyday for 3 days followed by once a week for 11 weeks; assay type: functional
Bombus terrestris [35] = test: Contact toxicity against worker Bombus terrestris (bumblebee) assessed as mortality at 125 mg a.i./l applied on the dorsal thorax for 11 weeks measured everyday for 3 days followed by once a week for 11 weeks; assay type: functional

**Q.** With `CCOCn1c(-c2ccc(Cl)cc2)c(C#N)c(Br)c1C(F)(F)F` [CHLORFENAPYR] as the compound, how does the Activity (Bombus terrestris [1]) read?
**A.** Active

**Q.** What about the mortality at 240 µg/mL (Bombus terrestris [2]) of the same compound?
**A.** 95%

**Q.** What about the Activity (Bombus terrestris [3]) of the same compound?
**A.** Active

**Q.** And the mortality at 240 µg/mL (Bombus terrestris [4])?
**A.** 50%

**Q.** What about the Activity (Bombus terrestris [5]) of the same compound?
**A.** inactive

**Q.** What about the LD50 (Apis mellifera [6]) of the same compound?
**A.** 0.2 µg

**Q.** And the mortality at 240 µg/mL (Bombus terrestris [7])?
**A.** 90%

**Q.** What about the mortality at 240 µg/mL (Bombus terrestris [8]) of the same compound?
**A.** 90%

**Q.** What about the Activity (Bombus terrestris [9]) of the same compound?
**A.** Active

**Q.** And the LD50 (Apis mellifera [10])?
**A.** <1 µg

**Q.** And the mortality at 240 µg/mL (Bombus terrestris [11])?
**A.** < 25%

**Q.** And the LD50 (Bombus terrestris [12])?
**A.** >100 µg

**Q.** With `CCOc1cc(C(C)(C)C)ccc1C1COC(c2c(F)cccc2F)=N1` (stereo unspecified) [ETOXAZOLE] as the compound, how does the Activity (Bombus terrestris [13]) read?
**A.** inactive

**Q.** And the Activity (Bombus terrestris [14])?
**A.** Active

**Q.** And the mortality at 55 µg/mL (Bombus terrestris [15])?
**A.** 95%

**Q.** What about the mortality at 55 µg/mL (Bombus terrestris [16]) of the same compound?
**A.** < 25%

**Q.** What about the Activity (Bombus terrestris [17]) of the same compound?
**A.** Active

**Q.** And the Activity (Bombus terrestris [18])?
**A.** Active

**Q.** And the Activity (Bombus terrestris [19])?
**A.** 25%

**Q.** What about the LC50 (Bombus terrestris [20]) of the same compound?
**A.** 4.4 mgAi/L

**Q.** And the NOAEL (Bombus terrestris [20])?
**A.** 0.55 mgAi/L

**Q.** Which mortality at 50 µg/mL (Bombus terrestris [21]) does the source give for `Cc1nn(C)c(Oc2ccccc2)c1/C=N/OCc1ccc(C(=O)OC(C)(C)C)cc1` [FENPYROXYMATE] here?
**A.** < 25%

**Q.** What about the Activity (Bombus terrestris [22]) of the same compound?
**A.** inactive

**Q.** And the Activity (Bombus terrestris [23])?
**A.** inactive

**Q.** What about the mortality at 50 µg/mL (Bombus terrestris [24]) of the same compound?
**A.** 95%

**Q.** And the Activity (Bombus terrestris [25])?
**A.** Active

**Q.** What about the Activity (Bombus terrestris [26]) of the same compound?
**A.** 50%

**Q.** What about the logP [27] of the same compound?
**A.** 5.01

**Q.** And the Activity (Bombus terrestris [28])?
**A.** 90%

**Q.** And the Activity (Apis mellifera [29])?
**A.** inactive

**Q.** With `O=C(NC(=O)c1c(F)cccc1F)Nc1ccc(CO/N=C(/c2ccc(Cl)cc2)C2CC2)cc1` [FLUCYCLOXURON] as the compound, how does the Activity (Bombus terrestris [30]) read?
**A.** Active

**Q.** What about the Activity (Bombus terrestris [31]) of the same compound?
**A.** Active

**Q.** What about the Activity (Bombus terrestris [32]) of the same compound?
**A.** inactive

**Q.** And the Activity (Bombus terrestris [33])?
**A.** inactive

**Q.** What about the mortality at 125 µg/mL (Bombus terrestris [34]) of the same compound?
**A.** 25%

**Q.** What about the mortality at 125 µg/mL (Bombus terrestris [35]) of the same compound?
**A.** < 25%
